This assay concerns the target T1, rat hippocampal α7 nAChR (endogenous, CA1 stratum radiatum interneurons) (Rattus norvegicus, UniProt Q05941).
T1 construct: gene Chrna7; native full-length homopentamer in rat hippocampal CA1 interneurons in brain slices
The assay can be described thus: whole-cell voltage clamp, choline-induced current, rat CA1 interneurons in slice. The following applies: 10 mM choline puffs; antagonist; -70 mV; pH 7.4; room temperature; approximate, read from concentration-response curve; voltage-independent; native receptor, α7β2 possibly mixed; read-out: 50% inhibition of ICh.

For one compound, IC50 results are on record in PMC6048275, “Methylpiperidinium Iodides as Novel Antagonists for α7 Nicotinic Acetylcholine Receptors” (Frontiers in Pharmacology, 2018).

T1 sequence (Q05941 23-502): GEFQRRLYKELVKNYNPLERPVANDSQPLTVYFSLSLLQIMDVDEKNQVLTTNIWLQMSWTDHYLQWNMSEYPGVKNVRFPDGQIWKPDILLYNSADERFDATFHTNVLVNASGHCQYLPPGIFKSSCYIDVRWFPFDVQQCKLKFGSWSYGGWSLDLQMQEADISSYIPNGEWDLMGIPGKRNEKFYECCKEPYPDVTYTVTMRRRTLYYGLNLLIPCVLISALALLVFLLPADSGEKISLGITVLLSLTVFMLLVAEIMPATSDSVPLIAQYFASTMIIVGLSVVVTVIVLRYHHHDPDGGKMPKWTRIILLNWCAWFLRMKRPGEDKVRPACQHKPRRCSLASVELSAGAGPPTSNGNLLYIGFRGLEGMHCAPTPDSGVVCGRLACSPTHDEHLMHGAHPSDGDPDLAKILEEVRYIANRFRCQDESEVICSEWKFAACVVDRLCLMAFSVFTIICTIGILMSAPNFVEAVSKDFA

As for `CCCCCCCOc1ccc(OCC[N+]2(C)CCCCC2)cc1` [12a], the IC50 was approximately 5 µM.
